PubChem BioAssay AID493062 (The Scripps Research Institute Molecular Screening Center, 2011)

Columns and labels:
[1] = test system: 2B4/MCL-1; assay: caspase activation in 2B4/MCL-1 versus 2B4/BCL-2 cells, late-stage follow-up, selectivity assay for MCL1-BIM inhibitor project, cell-based, fluorescence, assay provider data (AID 493062); conditions: 2B4/MCL-1 caspase activation fluorescence
[2] = test system: 2B4/BCL-2; assay: as above; conditions: 2B4/MCL-1 caspase activation fluorescence

| Compound | EC50 [1] | EC50 [2] |
| --- | --- | --- |
| Cc1ccc(-c2cc(C(=O)N3CC(C)OC(C)C3)c3ccccc3n2)o1 (configuration not stated) | > 25 µM | > 25 µM |
| CCC(=O)Nc1nnc(Cc2ccccc2)s1 | > 25 µM | > 25 µM |
| CCN1CCN(C(=O)c2cc(-c3ccco3)nc3ccccc23)CC1 | > 25 µM | > 25 µM |
| Cc1ccc(NC(=O)c2cc(-c3ccc(C)o3)nc3ccccc23)cc1 | > 25 µM | > 25 µM |
| COc1ccc(Cc2nnc(NC(=O)CCc3cccs3)s2)cc1OC | > 25 µM | > 25 µM |
| COc1ccc(NC(=O)c2cc(-c3ccco3)nc3ccccc23)cn1 | > 25 µM | > 25 µM |
| COc1ccc(NC(=O)CN(C)C(=O)c2cc(-c3ccc(C)o3)nc3ccccc23)cc1 | > 25 µM | > 25 µM |
| O=C(Nc1ccccc1F)c1cc(-c2ccco2)nc2ccccc12 | > 25 µM | > 25 µM |
| Cc1ccc(-c2cc(C(=O)Nc3ccccc3C)c3ccccc3n2)o1 | > 25 µM | > 25 µM |
| COc1ccccc1CC(=O)Nc1nnc(Cc2ccc(OC)c(OC)c2)s1 | > 25 µM | > 25 µM |
| O=C(NCC1CCCO1)c1cc(-c2ccco2)nc2ccccc12 (configuration not stated) | > 25 µM | > 25 µM |
| CCOc1cc(N2CCOCC2)c(OCC)cc1NC(=O)c1cc(-c2ccco2)nc2ccccc12 | > 25 µM | > 25 µM |
| O=C(Cc1cccs1)Nc1nnc(Cc2ccccc2)s1 | > 25 µM | > 25 µM |
| COc1ccc(Cc2nnc(NC(=O)Cc3sc(=S)[nH]c3C)s2)cc1OC | > 25 µM | > 25 µM |
| CCCCn1c(N)c(N(CC(C)C)C(=O)c2cc(-c3ccco3)nc3ccccc23)c(=O)[nH]c1=O | > 25 µM | > 25 µM |
| COc1ccc(Cc2nnc(CC(=O)Nc3cccs3)s2)cc1 | > 25 µM | > 25 µM |
| COc1cccc(NC(=O)CN(C)C(=O)c2cc(-c3ccc(C)o3)nc3ccccc23)c1 | > 25 µM | > 25 µM |
| O=C(Nc1ccc(F)cc1F)c1cc(-c2ccco2)nc2ccccc12 | > 25 µM | > 25 µM |
| CCN(CC)C(=O)COc1ccc2c(-c3ccc(OC)cc3)cc(=O)oc2c1 | > 25 µM | > 25 µM |
| COc1ccc(Cc2nnc(NC(=O)Cc3ccccn3)s2)cc1OC | > 25 µM | > 25 µM |
| COc1ccc(NC(=O)c2cc(-c3ccc(C)o3)nc3ccccc23)c(OC)c1 | > 25 µM | > 25 µM |
| Cc1cccc(NC(=O)c2cc(-c3ccco3)nc3ccccc23)n1 | > 25 µM | > 25 µM |

Next, values leading:

| EC50 [1] | EC50 [2] | Compound |
| --- | --- | --- |
| > 25 µM | > 25 µM | CC(C)CCNC(=O)c1cc(-c2ccco2)nc2ccccc12 |
| > 25 µM | > 25 µM | CCOC(=O)c1cc(-c2ccco2)nc2c1c(C)nn2-c1ccccc1 |
| > 25 µM | > 25 µM | O=C(NCCCN1CCOCC1)c1cc(-c2ccco2)nc2ccccc12 |
| > 25 µM | > 25 µM | COc1ccc(CC(=O)Nc2nnc(Cc3ccc(OC)c(OC)c3)s2)cc1 |
| > 25 µM | > 25 µM | CCOC(=O)C1CCCN(C(=O)c2cc(-c3ccco3)nc3ccccc23)C1 (configuration not stated) |
| > 25 µM | > 25 µM | CCCCN(C(=O)c1cc(-c2ccco2)nc2ccccc12)c1c(N)n(CCC)c(=O)[nH]c1=O |
| > 25 µM | > 25 µM | Cc1ccc(-c2cc(C(=O)Nc3ccccc3C(N)=O)c3ccccc3n2)o1 |
| > 25 µM | > 25 µM | O=C(Nc1cccc(S(=O)(=O)NC2=NCCCCC2)c1)c1cc(-c2ccco2)nc2ccccc12 |
| > 25 µM | > 25 µM | CCN(CC)C(=O)COc1ccc2c(-c3ccc(OC)cc3)cc(=O)oc2c1C |
| > 25 µM | 3 µM | O=C(Nc1ccccn1)c1cc(-c2ccco2)nc2ccc(Br)cc12 |
| 12 µM | 30 µM | COc1ccc(Cc2nnc(NC(=O)c3cc(-c4ccc(C)o4)nc4ccccc34)s2)cc1OC |
| > 25 µM | > 25 µM | CCN(CC)CCNC(=O)c1cc(-c2ccco2)nc2ccccc12 |
| > 25 µM | > 25 µM | O=C(Nc1nncs1)c1cc(-c2ccco2)nc2ccccc12 |
| > 25 µM | > 25 µM | CN(CC(=O)Nc1ccc(F)cc1)C(=O)c1cc(-c2ccco2)nc2ccccc12 |
| > 25 µM | > 25 µM | CCCCn1c(N)c(N(CCOC)C(=O)c2cc(-c3ccco3)nc3ccccc23)c(=O)[nH]c1=O |
| > 25 µM | > 25 µM | O=C(NC(=S)Nc1cccc(S(=O)(=O)NC2=NCCC2)c1)c1cc(-c2ccco2)nc2ccccc12 |
| 4 µM | 3.6 µM | COc1ccc(Cc2nnc(NC(=O)Cc3ccc(Oc4ccccc4)cc3)s2)cc1OC |
| > 25 µM | > 25 µM | COc1ccc(NC(=O)c2cc(-c3ccco3)nc3ccccc23)cc1 |
| > 25 µM | > 25 µM | O=C(CCn1nnc2ccccc21)Nc1nnc(Cc2ccc(F)cc2)s1 |
| > 25 µM | > 25 µM | COc1ccc(Cc2nnc(NC(=O)Cc3ccccc3C)s2)cc1OC |
| > 25 µM | > 25 µM | Cc1ccc(-c2cc(C(=O)N3CCOCC3)c3ccccc3n2)o1 |
| > 25 µM | > 25 µM | COc1ccc(Cc2nnc(NC(=O)Cc3ccncc3)s2)cc1OC |
| > 25 µM | > 25 µM | Cc1ccc(-c2cc(C(=O)N3CC(C)CC(C)C3)c3ccccc3n2)o1 (configuration not stated) |
| 10 µM | > 25 µM | O=C(Nc1cccnc1)c1cc(-c2ccco2)nc2ccc(Br)cc12 |
